Measurements reported in PubChem BioAssay AID179 (DTP/NCI, 2004).
Activity calls are given as the source filed them.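 How the source made its calls: active means compounds giving half or more protection of infected cells from virus-caused growth loss, again on retest; inactive means the rest.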

Test system: CEM cells HIV-1 protection, formazan growth assay
Assay: NCI AIDS Antiviral Assay
Settings: for IC50: measured here: growth of uninfected CEM cells
Summary of the method: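 Protection of CEM cells against HIV-1 was scored from cell growth (soluble formazan) across five concentrations, with parallel uninfected cells. Lack of protection may reflect toxicity.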

Row | Structure (SMILES) | EC50 | IC50 | outcome
1 | Cc1cc(N=Nc2ccc(C(=O)Nc3ccc4cc(S(=O)(=O)O)ccc4c3)cc2)c(N)c(N=Nc2ccc(N=Nc3ccc(O)c(C(=O)O)c3)cc2)c1N | 14.8 µM | > 100 µM | 
2 | CCOC(=O)CN1C(=O)c2c(NC(=O)C(=O)O)cccc2S1(=O)=O | > 200 µM | > 200 µM | 
3 | CSCCCNC(=O)c1csc(-c2csc(C(CNC(=O)OC(C)(C)C)CNC(=O)OC(C)(C)C)n2)n1 | > 200 µM | 22.4 µM | 
4 | CCOC(=O)C/C(C)=N\NS(=O)(=O)c1ccc(N)cc1 | > 417 µM | > 417 µM | 
5 | CCOC(=O)/C(=C\c1cccc(Br)c1)P(=O)(OCC)OCC | > 91.2 µM | 6.03 µM | 
6 | O=C(COc1ccc2c(=O)cc(-c3ccc(Cl)cc3)oc2c1)N1CCN(c2ccccc2)CC1 | 0.813 µM | 20.9 µM | 
7 | COc1cc(/C=C2\C(=O)N(C(=O)Cc3ccccc3)N=C2C)cc(OC)c1OC | > 25.1 µM | > 25.1 µM | 
8 | O=C(SCc1c(O)c2ccccc2oc1=O)c1ccccc1 | > 200 µM | 67.6 µM | 
9 | COc1cc(COC(=O)N[C@H](C(=O)O)C(C)(C)C)c([N+](=O)[O-])cc1OC | > 676 µM | > 676 µM | 
10 | COc1ccc(OCc2nc3cc(C(F)(F)F)ccc3nc2-c2ccccc2)cc1 | > 200 µM | > 200 µM | 
11 | Cc1c(N)nc(C(CC(N)=O)NCC(N)C(N)=O)nc1C(=O)NC(C(=O)NC(C)C(O)C(C)C(=O)NC(C(=O)NCCc1nc(-c2nc(C(=O)NCCCNC(C)c3ccccc3)cs2)cs1)C(C)O)C(OC1OC(CO)C(O)C(O)C1OC1OC(CO)C(O)C(OC(N)=O)C1O)c1cnc[nH]1 (stereo unspecified) |  |  | inactive
12 | O=C1OCCC1(Br)C(Br)c1ccccc1 (stereo unspecified) | > 200 µM | 6.03 µM | 
13 | CC(SS(=O)(=O)O)C(N)=NCc1ccccc1 (stereo unspecified) | > 200 µM | 67.6 µM | 
14 | O=C(CC1(O)C(=O)Nc2ccc(Br)cc21)c1cccc([N+](=O)[O-])c1 (stereo unspecified) | > 174 µM | 93.3 µM | 
15 | CC(C)S(=O)(=O)ON1C(=O)c2ccc([N+](=O)[O-])cc2C1=O | > 115 µM | 18.2 µM | 
16 | CC1C[C@@H]2C(=O)NC(=O)[C@@H]2c2c1c1ccccc1n2C (stereo partly specified) | > 331 µM | 214 µM | 
17 | CN(C)CC(=O)N1CC(COS(C)(=O)=O)c2ccc(O)cc21 (stereo unspecified) | > 20 µM | 3.47 µM | 
18 | CCOC(=O)c1c(NC(=O)c2cccs2)sc2c1CCCC2 | > 151 µM | > 151 µM | 
19 | CCOC(=O)C1=C(C)N(c2ccccc2)C2=C(C(=O)N(c3ccccc3)C2c2ccccc2)C1c1ccccc1 (stereo unspecified) | > 67.6 µM | > 67.6 µM | 
20 | c1cc(C[N+]23CN4CN(CN(C4)C2)C3)cs1 |  |  | inactive

Row | Structure (SMILES) | EC50 | IC50 | outcome
21 | C#CCn1c(=O)c2ccccc2n(CC#C)c1=O | > 200 µM | > 200 µM | 
22 | CC(C)(C)C1=CC(=Nc2c([N+](=O)[O-])cc([N+](=O)[O-])cc2[N+](=O)[O-])C=C(C(C)(C)C)C1=O | > 11.5 µM | > 11.5 µM | 
23 | Cc1c(C(=O)CC(=O)C(=O)Nc2ccc(Cl)c(Cl)c2)[n+](=O)c2ccccc2n1[O-] | > 6.31 µM | > 6.31 µM | 
24 | CC1(C)O[C@@H]2[C@H](O1)C(=O)O[C@@H]2CO | > 200 µM | > 200 µM | 
25 | Cc1cc(C)n2nc(N)c(C#N)c2c1C#N | > 12.9 µM | > 12.9 µM | 
26 | CCOC(=O)C1C/C(=N\OC(C)=O)c2ccc(OC)c(OC)c2C1 (stereo unspecified) |  |  | inactive
27 | Cn1cc(NC(=O)c2cc(NC(=O)[C@@H]3CCC(N)=N3)c[nH]2)cc1C(=O)NCCC(=N)N |  |  | inactive
28 | N#C/C(=C\NC(=S)C(N)=S)c1nc2ccccc2s1 | > 200 µM | 5.75 µM | 
29 | O=C(CC1C(=O)Nc2ccccc2S1=O)Nc1ccc(Cl)cc1 (stereo unspecified) |  |  | inactive
30 | COc1cc2c(cc1OC)-c1cc3ccc(OC)c(OC)c3c[n+]1CC2 | > 324 µM | 145 µM | 
31 | CCOC(=O)C1C(=O)CC(C)(O)C(C(=O)OCC)C1c1ccc(N(C)C)cc1 (stereo unspecified) | > 200 µM | > 200 µM | 
32 | CCCCCCCCCCCCCCCC(=O)OCC1OC(CO)(OC2OC(CO)C(O)C(O)C2O)C(O)C1O (stereo unspecified) | > 200 µM | 64.6 µM | 
33 | CCOC(=O)c1cn(Cc2ccccc2)c(=O)n1Cc1ccccc1 | > 107 µM | 60.3 µM | 
34 | N#[N+]C1=NC2C(=O)NC=NC2=N1 (stereo unspecified) | > 83.2 µM | > 83.2 µM | 
35 | N#CC1(C#N)C(=O)c2ccncc2C1=O | > 200 µM | > 200 µM | 
36 | Cc1cc(O)c(/C=N/C(=S)Nc2ccccc2)c(=O)o1 | > 200 µM | > 200 µM | 
37 | COc1ccc(Nc2nc3c(N)cc(C(F)(F)F)cc3nc2-c2ccccc2)cc1OC | > 16.2 µM | > 16.2 µM | 
38 | CCN(CC)C(=O)c1cccc2c(OC)ccc(OC)c12 |  |  | inactive
39 | COc1ccc2c(c1)[n+]([O-])c(/C(C)=N/NC(=O)c1ccccc1O)c(C)[n+]2[O-] | > 245 µM | > 245 µM | 
40 | O=C(NC(=O)c1ccccc1)OC(c1ccccc1)C1CO1 (stereo unspecified) | > 200 µM | > 200 µM | 

Row | Structure (SMILES) | EC50 | IC50 | outcome
41 | Nc1nnc(-c2ccccc2O)o1 | > 200 µM | 110 µM | 
42 | Cn1ncc(=O)[nH]c1=S | > 200 µM | > 200 µM | 
43 | CC(=O)CC(=O)N1CCSC1=S | 126 µM | > 200 µM | 
44 | CN=C(n1ccnc1)n1ccnc1 | > 200 µM | > 200 µM | 
45 | C/C=C/C=N/N(c1nnc(-c2ccccc2)c(-c2ccccc2)n1)S(=O)(=O)c1ccc(C)cc1 | > 21.4 µM | 7.59 µM | 
46 | O=C1NC2C=CN(Cc3ccccc3)C=C2C(=O)N2CCCC12 (stereo unspecified) | > 6.46 µM | > 6.46 µM | 
47 | CC(C)OP(=O)(OC(C)C)/C(Cl)=N/Nc1ccc([N+](=O)[O-])cc1 | > 70.8 µM | > 70.8 µM | 
48 | CN(C)c1ccc(C2CC(=O)CC(c3ccc(N(C)C)cc3)C23C(=O)NC(=O)NC3=O)cc1 (stereo unspecified) | > 25.1 µM | > 25.1 µM | 
49 | COC(=O)c1cc(C(c2cc(C(=O)OC)c(O)c(Br)c2C)C(Cl)(Cl)Cl)c(C)c(Br)c1O | > 200 µM | 112 µM | 
50 | C[C@H]1c2c([nH]c(=O)[nH]c2=O)O[C@@H]1c1ccccc1 | > 200 µM | > 200 µM | 
51 | O=c1oc2c(ccc3nc(-c4ccccc4)sc32)c(N2CCOCC2)c1Cl |  |  | inactive
52 | CCCCCCN(CCCCCC)C(=O)C1=C(C)NC(C)=C(C(=O)N(CCCCCC)CCCCCC)C1 | > 200 µM | 95.5 µM | 
53 | O=S(=O)(N1CCCCN(S(=O)(=O)C(F)(F)F)CCCN(S(=O)(=O)C(F)(F)F)CCCN(S(=O)(=O)C(F)(F)F)CCCCN(S(=O)(=O)C(F)(F)F)CCCN(S(=O)(=O)C(F)(F)F)CCC1)C(F)(F)F | > 200 µM | > 200 µM | 
54 | C[n+]1c(-c2ccc(/C=N\NC(=O)c3ccc(C(=O)N/N=C/c4ccc(-c5cn6ccsc6[n+]5C)cc4)cc3)cc2)cn2ccsc21 | > 50.1 µM | 0.501 µM | 
55 | Nc1cc(N)c(N=Nc2ccc(CCc3ccc(N=Nc4c(N)cc(N)cc4C(=O)O)cc3S(=O)(=O)O)c(S(=O)(=O)O)c2)c(C(=O)O)c1 | > 1020 µM | 174 µM | 
56 | O=C(NC1CCCCC1NC(c1ccccc1)(c1ccccc1)c1ccccc1)C(=O)NC1CCCCC1NC(c1ccccc1)(c1ccccc1)c1ccccc1 (stereo unspecified) | > 100 µM | > 100 µM | 
57 | COC(=O)C1CCCCCCCCCCC12SCCCS2 (stereo unspecified) | > 200 µM | > 200 µM | 
58 | O=S(=O)(c1ccccc1)S(=O)(=O)c1ccccc1 | > 47.9 µM | > 47.9 µM | 
59 | CC(=O)Nc1c(C)cc2c(nc3n2CCC3O)c1[N+](=O)[O-] (stereo unspecified) | > 200 µM | > 200 µM | 
